ChEMBL document CHEMBL5104093, “A comprehensive review on β-lapachone: Mechanisms, structural modifications, and therapeutic potentials” (Eur J Med Chem, 2021)
≈ marks a conversion by molar mass, not a printed value.

Assays:
[1] = test system: Mycobacterium tuberculosis; assay: Antimycobacterial activity against Mycobacterium tuberculosis H37Rv ATCC 27294 assessed as bacterial growth inhibition incubated for 7 days by resazurin dye based microtiter assay; format: functional; settings: ATCC 27294, 168 h, time 7 day
Trypanosoma cruzi [2] = assay: Antitrypanosomal activity against bloodstream form of Trypanosoma cruzi Y trypomastigotes infected in albino mouse assessed as reduction in viable parasite in blood incubated for 24 hrs by Neubauer counting chamber method; format: functional, organism-based
K562 = assay: Cytotoxicity against human K562 cells assessed as reduction in cell viability incubated for 72 hrs by MTT assay; format: functional, cell-based; settings: K562, 72 h
HL-60 = assay: Cytotoxicity against human HL-60 cells assessed as reduction in cell viability incubated for 72 hrs by MTT assay; format: functional, cell-based; settings: HL-60, 72 h
Jurkat = assay: Cytotoxicity against human Jurkat cells assessed as reduction in cell viability incubated for 72 hrs by MTT assay; format: functional, cell-based
MOLT-4 = assay: Cytotoxicity against human MOLT-4 cells assessed as reduction in cell viability incubated for 72 hrs by MTT assay; format: functional, cell-based; settings: MOLT-4, 72 h
Trypanosoma cruzi [3] = assay: Antitrypanosomal activity against bloodstream form of Trypanosoma cruzi trypomastigotes infected in Swiss mouse assessed as reduction in viable parasite in blood incubated for 24 hrs by Neubauer counting chamber method; format: functional, organism-based
HepG2 = assay: Cytotoxicity against human HepG2 cells assessed as reduction in cell viability incubated for 48 hrs by MTT assay; format: functional, cell-based; settings: HepG2, 48 h
MDA-MB-435 = assay: Cytotoxicity against human MDA-MB-435 cells assessed as reduction in cell viability incubated for 72 hrs by MTT assay; format: functional, cell-based; settings: MDA-MB-435, 72 h
PC-3 = assay: Cytotoxicity against human PC-3 cells assessed as reduction in cell viability incubated for 72 hrs by MTT assay; format: functional, cell-based; settings: PC-3, 72 h
SF-295 [4] = assay: Cytotoxicity against human SF-295 cells assessed as reduction in cell viability incubated for 72 hrs by MTT assay; format: functional, cell-based; settings: SF-295, 72 h
B16 = assay: Cytotoxicity against mouse B16 cells assessed as reduction in cell viability incubated for 72 hrs by MTT assay; format: functional, cell-based; settings: B16, 72 h
HCT-8 = assay: Cytotoxicity against human HCT-8 cells assessed as reduction in cell viability incubated for 72 hrs by MTT assay; format: functional, cell-based; settings: HCT-8, 72 h
Staphylococcus aureus = assay: Antibacterial activity against Staphylococcus aureus 2065 MA assessed as diameter of bacterial growth inhibition by Mueller-Hinton broth based assay; format: functional
Trypanosoma cruzi [5] = assay: Antitrypanosomal activity against bloodstream form of Trypanosoma cruzi Y trypomastigotes infected in Swiss Webster mouse assessed as reduction in viable parasite in blood incubated for 24 hrs by Neubauer counting chamber based light microscopic analysis; format: functional, organism-based
Trypanosoma cruzi [6] = assay: Antitrypanosomal activity against bloodstream form of Trypanosoma cruzi Y trypomastigotes infected in albino mouse assessed as reduction in viable parasite in blood by Neubauer counting chamber method; format: functional, organism-based
OVCAR-8 = assay: Cytotoxicity against human OVCAR-8 cells assessed as reduction in cell viability by MTT assay; format: functional, cell-based
HCT-116 = assay: Cytotoxicity against human HCT-116 cells assessed as reduction in cell viability by MTT assay; format: functional, cell-based
SF-295 [7] = assay: Cytotoxicity against human SF-295 cells assessed as reduction in cell viability by MTT assay; format: functional, cell-based

Structure (SMILES): CC1(C)OC2=C(C(=O)C(=O)c3ccccc32)[C@H](n2cc(-c3ccc(Br)cc3)nn2)[C@H]1Br
- MIC [1]: < 6.25 µg/mL

Structure (SMILES): CC1(C)OC2=C(C(=O)C(=O)c3ccccc32)[C@H](n2cc(-c3ccc(F)cc3)nn2)[C@H]1Br
- MIC [1]: < 6.25 µg/mL

Structure (SMILES): COc1ccc(-c2cn([C@H]3C4=C(OC(C)(C)[C@@H]3Br)c3ccccc3C(=O)C4=O)nn2)cc1
- MIC [1]: < 6.25 µg/mL

Structure (SMILES): CC1(C)OC2=C(C(=O)C(=O)c3ccccc32)[C@H](n2cc(-c3ccccc3)nn2)[C@H]1Br
- MIC [1]: < 6.25 µg/mL

Structure (SMILES): C=CCC1Cc2c(c3ccccc3c3nc4ccccc4nc23)OC1(C)C (stereo not given)
- MIC [1]: 0.78 µg/mL (≈ 2.2 µM)

Structure (SMILES): CC1(C)CCc2c(c3ccccc3c3nc(-c4ccc5c(c4)OCO5)oc23)O1
- IC50 (Trypanosoma cruzi [2]): 270 µM

Structure (SMILES): CC1(C)OC2=C(C(=O)C(=O)c3ccccc32)C1n1cc(-c2ccc(F)cc2)nn1 (stereo not given)
- IC50 (K562): 1.33 µM
- IC50 (HL-60): 1.33 µM
- IC50 (Jurkat): 1.33 µM
- IC50 (MOLT-4): 1.33 µM

Structure (SMILES): CC1(C)OC2=C(C(=O)C(=O)c3ccccc32)C1n1cc(-c2ccc([N+](=O)[O-])cc2)nn1 (stereo not given)
- IC50 (K562): 0.74 µM
- IC50 (HL-60): 0.74 µM
- IC50 (Jurkat): 0.74 µM
- IC50 (MOLT-4): 0.74 µM

Structure (SMILES): COc1ccc(-c2cn(C3C4=C(OC3(C)C)c3ccccc3C(=O)C4=O)nn2)cc1 (stereo not given)
- IC50 (K562): 0.94 µM
- IC50 (HL-60): 0.94 µM
- IC50 (Jurkat): 0.94 µM
- IC50 (MOLT-4): 0.94 µM

Structure (SMILES): CC1CC2=C(O1)c1ccccc1C(=O)C2=O (stereo not given)
- IC50 (HL-60): 1.11 µM

Structure (SMILES): CC1(C)CCc2c(c3ccccc3c3nc(-c4ccccc4)[nH]c23)O1
- IC50 (Trypanosoma cruzi [3]): 37.5 µM

Structure (SMILES): CC1(C)CCc2c(c3ccccc3c3nc(-c4cccc(Br)c4)[nH]c23)O1
- MIC [1]: 1.56 µg/mL (≈ 3.83 µM)

Structure (SMILES): CC1(C)CCc2c(c3ccccc3c3nc(-c4ccc(Br)cc4)[nH]c23)O1
- IC50 (Trypanosoma cruzi [3]): 37.5 µM

Structure (SMILES): CC1(C)CCc2c(c3ccccc3c3nc(-c4cccc(F)c4)[nH]c23)O1
- MIC [1]: 1.56 µg/mL (≈ 4.5 µM)

Structure (SMILES): CC1(C)CCc2c(c3ccccc3c3nc(-c4ccc(F)cc4)[nH]c23)O1
- IC50 (Trypanosoma cruzi [3]): 37.5 µM

Structure (SMILES): CC1(C)CCc2c(c3ccccc3c3nc(-c4ccc([N+](=O)[O-])cc4)[nH]c23)O1
- MIC [1]: > 100 µg/mL

Structure (SMILES): COc1ccccc1-c1nc2c([nH]1)c1c(c3ccccc32)OC(C)(C)CC1
- MIC [1]: 1.56 µg/mL (≈ 4.35 µM)

Structure (SMILES): Cc1ccccc1-c1nc2c([nH]1)c1c(c3ccccc32)OC(C)(C)CC1
- MIC [1]: 1.56 µg/mL (≈ 4.56 µM)
- IC50 (Trypanosoma cruzi [3]): 37.5 µM

Structure (SMILES): CC1(C)CCc2c(c3ccccc3c3nc(-c4cccc(C(F)(F)F)c4)[nH]c23)O1
- MIC [1]: 1.56 µg/mL (≈ 3.94 µM)

Structure (SMILES): Cc1ccc(-c2nc3c([nH]2)c2c(c4ccccc43)OC(C)(C)CC2)cc1
- MIC [1]: 3.12 µg/mL (≈ 9.11 µM)

Structure (SMILES): O=C1C(=O)c2ccccc2C2=C1CCCO2
- IC50 (HepG2): 0.92 µM

Structure (SMILES): CC1(C)OC2=C(C(=O)C(=O)c3ccccc32)C1n1cc(C2=CCCCC2)nn1 (stereo not given)
- IC50 (MDA-MB-435): < 1.25 µM
- IC50 (HL-60): < 5 µM
- IC50 (PC-3): < 1.25 µM
- IC50 (SF-295 [4]): < 1.25 µM
- IC50 (B16): < 1.25 µM
- IC50 (HCT-8): < 1.25 µM

Structure (SMILES): CC1(C)OC2=C(C(=O)C(=O)c3ccccc32)C1Sc1c(F)c(F)c(F)c(F)c1F (stereo not given)
- zone diameter (Staphylococcus aureus): 10 mm

Structure (SMILES): CC1(C)OC2=C(CC1[Se]c1ccccc1)C(=O)C(=O)c1ccccc12 (stereo not given)
- IC50 (Trypanosoma cruzi [5]): 103 µM

Structure (SMILES): CC1(C)OC2=C(CC1[Se]c1cccc(C(F)(F)F)c1)C(=O)C(=O)c1ccccc12 (stereo not given)
- IC50 (Trypanosoma cruzi [6]): 54.9 µM
- IC50 (Trypanosoma cruzi [5]): 54.9 µM

Structure (SMILES): CCCC[Se]C1CC2=C(OC1(C)C)c1ccccc1C(=O)C2=O (stereo not given)
- IC50 (Trypanosoma cruzi [5]): 109 µM

Structure (SMILES): COc1ccc(/C=C/C(=O)c2ccc(NC3C4=C(OC3(C)C)c3ccccc3C(=O)C4=O)cc2)cc1 (stereo not given)
- IC50 (Trypanosoma cruzi [6]): 230 µM

Structure (SMILES): COc1ccc(-c2nc3c([nH]2)c2c(c4ccccc43)OC(C)(C)CC2)cc1
- IC50 (Trypanosoma cruzi [2]): 259 µM

Structure (SMILES): CC(C)(O)c1cn(C2C3=C(OC2(C)C)c2ccccc2C(=O)C3=O)nn1 (stereo not given)
- IC50 (MDA-MB-435): 2.8 µM
- IC50 (HL-60): 2.8 µM
- IC50 (PC-3): 2.8 µM
- IC50 (SF-295 [4]): 2.8 µM
- IC50 (B16): 2.8 µM
- IC50 (HCT-8): 2.8 µM

Structure (SMILES): O=C1C(=O)c2c(O)cccc2C2=C1CCC(c1ccccc1)O2 (stereo not given)
- IC50 (MDA-MB-435): 0.11 µM
- IC50 (HL-60): 0.11 µM
- IC50 (SF-295 [4]): 0.11 µM
- IC50 (HCT-8): 0.11 µM

Structure (SMILES): CC1(C)O[C@H]2O[C@H](COC3C4=C(OC3(C)C)c3ccccc3C(=O)C4=O)[C@@H](OCc3ccccc3)[C@H]2O1 (stereo not given in full)
- IC50 (OVCAR-8): 0.16 µM
- IC50 (HCT-116): 0.16 µM
- IC50 (SF-295 [7]): 0.16 µM

Structure (SMILES): CC1(C)OC2=C(C(=O)C(=O)c3ccccc32)C1N=[N+]=[N-] (stereo not given)
- IC50 (MDA-MB-435): 1.19 µM
- IC50 (HL-60): 1.19 µM
- IC50 (PC-3): 1.19 µM
- IC50 (SF-295 [4]): 1.19 µM
- IC50 (B16): 1.19 µM
- IC50 (HCT-8): 1.19 µM

Structure (SMILES): CC1(C)OC2=C(C(=O)C(=O)c3ccccc32)C1n1cc(CO)nn1 (stereo not given)
- IC50 (MDA-MB-435): 3.38 µM
- IC50 (HL-60): 3.38 µM
- IC50 (PC-3): 3.38 µM
- IC50 (SF-295 [4]): 3.38 µM
- IC50 (B16): 3.38 µM
- IC50 (HCT-8): 3.38 µM

Structure (SMILES): CC1(C)CCc2c(c3ccccc3c3nc(-c4ccccc4Cl)[nH]c23)O1
- IC50 (Trypanosoma cruzi [3]): 37.5 µM

Structure (SMILES): CC1(C)OC2=C(C(=O)C(=O)c3ccccc32)C1S(=O)(=O)C1CCCCC1 (stereo not given)
- zone diameter (Staphylococcus aureus): 8 mm

Structure (SMILES): O=C1C(=O)c2c(O)cccc2C2=C1CCC(c1ccc(Cl)cc1)O2 (stereo not given)
- IC50 (MDA-MB-435): 0.15 µM
- IC50 (HL-60): 0.17 µM
- IC50 (SF-295 [4]): 0.17 µM
- IC50 (HCT-8): 0.17 µM

Structure (SMILES): O=C1C(=O)c2c(O)cccc2C2=C1CCC(c1ccc(F)cc1)O2 (stereo not given)
- IC50 (MDA-MB-435): 0.15 µM
- IC50 (HL-60): 0.21 µM
- IC50 (SF-295 [4]): 0.21 µM
- IC50 (HCT-8): 0.21 µM

Structure (SMILES): O=C1C(=O)c2c(O)cccc2C2=C1CCC(c1ccc(Br)cc1)O2 (stereo not given)
- IC50 (MDA-MB-435): 0.15 µM
- IC50 (HL-60): 0.15 µM
- IC50 (SF-295 [4]): 0.15 µM
- IC50 (HCT-8): 0.15 µM

Structure (SMILES): COc1ccc(-c2nc3c(o2)c2c(c4ccccc43)OC(C)(C)CC2)cc1
- IC50 (Trypanosoma cruzi [2]): 3500 µM

Structure (SMILES): O=C1C(=O)c2ccccc2C2=C1CC(Cn1cc(COC3CCCCO3)nn1)O2 (stereo not given)
- IC50 (Trypanosoma cruzi [6]): 52.9 µM

Structure (SMILES): CC1(C)Oc2c(c3nc4ccccc4nc3c3ccccc23)C1N=[N+]=[N-] (stereo not given)
- MIC [1]: 25 µg/mL (≈ 73.2 µM)

Structure (SMILES): CC1CCC2C(C1)c1c(c3ccccc3c3nc4ccccc4nc13)OC2(C)C (stereo not given)
- MIC [1]: < 6.25 µg/mL

Structure (SMILES): O=C1C(=O)c2ccccc2C2=C1CC(CI)O2 (stereo not given)
- IC50 (K562): 1.38 µM
- IC50 (Jurkat): 1.38 µM
- IC50 (MOLT-4): 1.38 µM

Structure (SMILES): CCOC(=O)C1=C2C3=C(OC(C)(C)CC3)c3ccccc3C2(O)CC1=O (stereo not given)
- IC50 (Trypanosoma cruzi [2]): 56.1 µM

Structure (SMILES): Cc1cccc(S(=O)(=O)C2C3=C(OC2(C)C)c2ccccc2C(=O)C3=O)c1 (stereo not given)
- zone diameter (Staphylococcus aureus): 7 mm

Structure (SMILES): CC(=O)OC[C@H]1O[C@@H](OCc2cn(C3C4=C(OC3(C)C)c3ccccc3C(=O)C4=O)nn2)[C@H](OC(C)=O)[C@@H](OC(C)=O)[C@H]1OC(C)=O (stereo not given in full)
- IC50 (Trypanosoma cruzi [6]): 209 µM

Structure (SMILES): CC1(C)Oc2c(c3nc4ccccc4nc3c3ccccc23)C=C1Br
- MIC [1]: < 6.25 µg/mL

Structure (SMILES): CC1(C)CC2=C(O1)c1ccccc1C(=O)C2=O [NOR-BETA-LAPACHONE]
- IC50 (Jurkat): 1.34 µM
